biological target: T1, human P2X7 receptor (Homo sapiens, UniProt Q99572); experiment: Ethidium Accumulation Assay; type: cell-based; conditions: HEK293 cells expressing human recombinant P2X7 receptors; 1 mM ATP; ethidium 100 μM; read-out: pIC50 in the Ethidium Accumulation Assay (antagonist, blocking ATP responses) (converted)
T1 construct: expressed in transfected cells; host or cells: HEK293
T1 sequence (Q99572 1-595): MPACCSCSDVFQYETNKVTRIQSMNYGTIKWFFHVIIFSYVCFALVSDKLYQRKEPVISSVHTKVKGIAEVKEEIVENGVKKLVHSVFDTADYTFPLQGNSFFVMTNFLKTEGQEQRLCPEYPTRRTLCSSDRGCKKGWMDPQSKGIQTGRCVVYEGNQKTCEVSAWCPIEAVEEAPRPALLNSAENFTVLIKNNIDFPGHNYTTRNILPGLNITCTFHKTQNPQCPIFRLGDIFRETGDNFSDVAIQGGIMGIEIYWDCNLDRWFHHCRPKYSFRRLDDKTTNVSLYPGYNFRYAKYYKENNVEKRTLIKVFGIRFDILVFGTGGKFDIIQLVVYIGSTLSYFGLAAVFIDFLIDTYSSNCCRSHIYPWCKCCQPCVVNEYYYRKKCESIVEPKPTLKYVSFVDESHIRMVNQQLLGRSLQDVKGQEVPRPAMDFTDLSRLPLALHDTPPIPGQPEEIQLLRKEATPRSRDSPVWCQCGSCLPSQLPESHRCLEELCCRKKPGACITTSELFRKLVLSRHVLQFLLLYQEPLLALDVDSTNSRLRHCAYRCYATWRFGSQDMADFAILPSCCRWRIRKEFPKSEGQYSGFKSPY
Procedure: Studies were performed using NaCl assay buffer of the following composition (in mM): 140 mM NaCl, HEPES 10, N-methyl-D-glucamine 5, KCl 5.6, D-glucose 10, CaCl2 0.5 (pH 7.4). HEK293 cells, expressing human recombinant P2X7 receptors, were grown in poly-L-lysine pretreated 96 well plates for 18-24 h. […] The cells were washed twice with 350 μl of assay buffer before addition of 50 μl of antagonist. The cells were then incubated at room temperature (19-21° C.) for 30 min before addition of ATP and ethidium (100 μM final assay concentration). The ATP concentration was chosen to be close to the EC80 for the receptor type and was 1 mM for studies on the human P2X7 receptor. Incubations were continued for 8 or 16 min and were terminated by addition of 25 μl of 1.3M sucrose containing 5 mM of the P2X7 receptor antagonist reactive black 5 (Aldrich). Cellular accumulation of ethidium was determined by measuring fluorescence (excitation wavelength of 530 nm and emission wavelength of 620 nm) from below the plate with a Canberra Packard Fluorocount (Pangbourne, UK). Antagonist pIC50 values for blocking ATP responses were determined using iterative curve fitting techniques.

Row | IC50 | Structure (SMILES)
1 | ≤ 100 nM | CCN1C(=O)OC[C@H]1C(=O)NCc1ccc(F)cc1Cl [Example E1, N-[(2-chloro-4-fluorophenyl)methyl]-3-ethyl-2-oxo-1,3-oxazolidine-4-carboxamide]
2 | ≤ 100 nM | CN1C(=O)OCC1C(=O)NCc1cccc(C(F)(F)F)c1Cl (stereo not shown) [Example E3, N-{[2-chloro-3-(trifluoromethyl)phenyl]methyl}-3-methyl-2-oxo-1,3-oxazolidine-4-carboxamide]
3 | ≤ 100 nM | CN1C(=O)OC[C@H]1C(=O)NCc1cccc(C(F)(F)F)c1Cl [Example E4, N-{[2-chloro-3-(trifluoromethyl)phenyl]methyl}-3-methyl-2-oxo-1,3-oxazolidine-4-carboxamide]
4 | ≤ 100 nM | CN1C(=O)COCC1C(=O)NCc1cccc(C(F)(F)F)c1Cl (stereo not shown) [Example E10, N-{[2-chloro-3-(trifluoromethyl)phenyl]methyl}-4-methyl-5-oxo-3-morpholinecarboxamide]

Reference: patent US20100144727A1, “Oxazolidine and Morpholine Carboxamide Derivatives as P2X7 Modulators” (priority 2007, published 2010)
